This note sets out measurements from patent US20260325521A1, “TREATMENT OF IDIOPATHIC PULMONARY FIBROSIS WITH ENSIFENTRINE” (Verona Pharma Limited, priority 2022, published 2026).

What all share (assay type): in vivo
For data set [1], the system named is bleomycin-induced lung fibrosis. Nature of the data set: Rodent model of bleomycin-induced lung fibrosis (Example 2). The conditions noted are these: rodents, inhalation; dose and period not given; histological fibrotic area. How it is done:
The anti-fibrotic activity of ensifentrine is assessed using a rodent model of bleomycin-induced lung fibrosis.
Bleomycin is administered to anaesthetised rodents to induce lung fibrosis. Ensifentrine is then administered to the test rodents by inhalation for a period, and the rodents are subsequently killed. Lung samples are obtained for histological studies to determine fibrotic area.

The next data set relates to IL-6. Nature of the data set: Clinical study in COPD patients: change in blood IL-6 with inhaled ensifentrine compared with placebo. The conditions noted are these: inhaled by nebuliser, 3 mg BID, 24 weeks, FIG. 1. How it is done: (§1) A clinical study was conducted to determine the efficacy of ensifentrine in treating COPD compared with placebo. Ensifentrine was administered by nebuliser at a dose of 3 mg twice daily (BID) for 24 weeks. The study was a multi-centre, randomized, double-blind, parallel-group, placebo-controlled trial with around 800 patients and 5:3 randomization.
(§2) The study population included patients aged 40-80 years with moderate to severe COPD (FEV1 30%-70% p.n., FEV1/forced vital capacity (FVC) ratio <0.7, with mMRC ≥2). The randomization stratified (a) the use of stable background maintenance LAMA or LABA therapy use (approx. 50%. yes or no) and (b) cigarette smoking (current or former). Inhaled corticosteroid (ICS) maintenance therapy was permitted in up to 20% of patients under certain provisions.
(§3) The effect of ensifentrine on the change in blood IL-6 and IL-8 was measured.
(§4) The investigational product and placebo were provided in 2.5 mL unit dose format in an ampule and administered via a nebuliser.

Data set [2] deals with bleomycin-induced pulmonary fibrosis. Nature of the data set: Efficacy in treatment of bleomycin-induced pulmonary fibrosis in rats (overall). As to conditions: inhalation, 3 mg/kg and 10 mg/kg. How it is done:
(§5) An in vivo study was conducted to determine the efficacy of ensifentrine in the treatment of bleomycin-induced pulmonary fibrosis in rats in comparison to a control. Rats were administered bleomycin to induce pulmonary fibrosis. After a week, they then received a daily inhaled dosage of ensifentrine or a control over a period of two weeks. At the end of the two weeks, the rats were sacrificed and their airways were analysed for Bronchoalveolar lavage (BAL) differential cell counts and TGF-β concentration.
(§6) At day 0, the rats were subjected to an intratracheal challenge of either 0.9% w/v saline or bleomycin, the latter used to induce pulmonary fibrosis.
(§7) Starting on day 7, two groups of 12 rats from the bleomycin challenge group were administered an inhaled dose of ensifentrine at either 3 mg/kg (Experiment 1) or 10 mg/kg (Experiment 2) on a daily basis for two weeks, terminating on day 21. The ensifentrine was administered as a suspension in the vehicle suspension article.
Two control experiments were also conducted. Control 1 subjected 12 rats from the saline challenge group to daily administration of the vehicle suspension article via inhalation for the full 21 days. Control 2 subjected 12 rats from the bleomycin challenge group to daily administration of the vehicle suspension article via inhalation for the full 21 days. […]

For the next data set, the system named is TGF-β. The experiment in a line: Bleomycin-induced pulmonary fibrosis in rats: TGF-β concentration. The protocol:
as §5
(§8) The BAL differential cell count provided a total inflammatory cell count so that changes in inflammation following treatment could be observed. TGF-β is a key cytokine in the development of tissue fibrosis. Macrophages and other immune cells produce TGF-β, which induces the differentiation of fibroblasts to myofibroblasts and increases TGF-β expression. Overexpression of active TGF-β1 in the lungs of rodents causes severe and progressive tissue fibrosis, including fibroblastic foci and honeycomb formation.
as §6, §7
(§9) Two control experiments were also conducted. Control 1 subjected 12 rats from the saline challenge group to daily administration of the vehicle suspension article via inhalation for the full 21 days. Control 2 subjected 12 rats from the bleomycin challenge group to daily administration of the vehicle suspension article via inhalation for the full 21 days.
(§10) At the end of the 21-day period, the rats were sacrificed and the BAL differential cell counts and the TGF-β concentration data were collected.
An in vivo study was conducted to compare the efficacy of ensifentrine and nintedanib in the treatment of bleomycin-induced pulmonary fibrosis in rats. Following the same initial experimental procedure as in Example 3, 12 rats from the bleomycin challenge group were administered a daily dose of 100 mg/kg of nintedanib via an oral gavage for two weeks, starting from day 7 (Experiment 3). A new control experiment was also conducted (Control 3), administering the vehicle suspension article orally in an aqueous solution.
At day 21, the rats were sacrificed and their airways were analysed to calculate the TGF-β concentration. The results were compared to those of Experiments 1 and 2 (Example 3).

Data set [3] can be described thus: Diarrhoea as side effect of inhaled ensifentrine in patients.
For data set [4], the system named is inflammatory cell and macrophage infiltration into the rat airways. The experiment in a line: Bleomycin-induced pulmonary fibrosis in rats: BAL differential cell counts. How it is done: as §5, §8, §6, §7, §9, §10
The test system of another data set is IL-8. The experiment in a line: Clinical study in COPD patients: change in blood IL-8 with inhaled ensifentrine compared with placebo. As to conditions: inhaled by nebuliser, 3 mg BID, 24 weeks, FIG. 1. The protocol:
as §1, §2, §3, §4

[5] abbreviates: inhaled 3 mg/kg/day QD from day 7, day 21, vs bleomycin Control 2 (Experiment 1).
Setting [6] is: inhaled 10 mg/kg/day QD from day 7, day 21, vs bleomycin Control 2 (Experiment 2).

The structures appear in SMILES notation. Entries after “also recorded” stand apart in the source; their conditions may differ.

Regarding `COc1cc2c(cc1OC)-c1c/c(=N\c3c(C)cc(C)cc3C)n(CCNC(N)=O)c(=O)n1CC2` [ensifentrine, N-(2-{(2E)-9,10-dimethoxy-4-oxo-2-[(2,4,6-trimethylphenyl)imino]-6,7-dihydro-2H-pyrimido[6,1-a]isoquinolin-3(4H)-yl}ethyl)urea], the “anti-fibrotic effect in bleomycin-induced lung fibrosis” value in data set [1] is on record as “anti-fibrotic effect”. The “blood IL-6” value in the data set on IL-6 was “reduce blood IL-6; also recorded: reduction in blood IL-6”. In data set [2], the “efficacy in the treatment of bleomycin-induced pulmonary fibrosis” value was “effective”. In addition, the “TGF-β concentration in the rat lungs compared with nintedanib” value is given as “lower than the TGF-β concentration following treatment with nintedanib; also recorded: greater reduction in TGF-β concentration than orally administered nintedanib” in the data set on TGF-β (day 21, inhaled ensifentrine 3 mg/kg/day (Experiment 1) vs oral nintedanib 100 mg/kg/day (Experiment 3)) and “lower than the TGF-β concentration following treatment with nintedanib; also recorded: greater reduction in TGF-β concentration than orally administered nintedanib” with TGF-β (day 21, inhaled ensifentrine 10 mg/kg/day (Experiment 2) vs oral nintedanib 100 mg/kg/day (Experiment 3)). For the same molecule, the TGF-β concentration entry in the data set with TGF-β (setting [5]) was “lower; also recorded: reduction in BAL differential cell count and TGF-β concentration”; in the data set on TGF-β (setting [6]), “lower; also recorded: reduction in BAL differential cell count and TGF-β concentration”. Also, in data set [3], the “diarrhoea (side effect)” value was “avoid side effects such as diarrhoea; also recorded: not to be associated with diarrhoea”. The “BAL differential cell count” value was “reduction in BAL differential cell count” in data set [4] (inhaled 3 mg/kg QD from day 7, day 21 (Experiment 1)) and “reduction in BAL differential cell count” in data set [4] (inhaled 10 mg/kg QD from day 7, day 21 (Experiment 2)). Also, the “macrophage infiltration into the airways (BAL differential cell counts)” value in data set [4] (setting [5]) was “reduction in total inflammatory cell and macrophage infiltration”; in data set [4] (setting [6]) it was “reduction in total inflammatory cell and macrophage infiltration”. Besides, the “total inflammatory cell infiltration into the airways (BAL differential cell counts)” value in data set [4] (setting [5]) and in data set [4] (setting [6]) was “reduction in total inflammatory cell” throughout. Besides, the “blood IL-8” value in the data set with IL-8 was “reduce blood IL-6 and IL-8; also recorded: reduction in blood IL-6 and IL-8”.
